{"source": "PubChem BioAssay AID1259407", "about": "(Chemical Carcinogenesis Research Information System (CCRIS), 2018)", "test_system": "CCRIS mutagenicity, Ames/micronucleus/aberration tests", "assay": "CCRIS mutagenicity studies", "key": {"[1]": {"details": "Test System: AMES SALMONELLA TYPHIMURIUM, Strain/Indicator: TA98, Metabolic Activation: RAT, LIVER, S-9, AROCLOR 1254, Method: STANDARD PLATE"}, "[2]": {"details": "Test System: AMES SALMONELLA TYPHIMURIUM, Strain/Indicator: TA98, Metabolic Activation: NONE, Method: STANDARD PLATE"}}, "note": "Calls of active or inactive are those of the source. How the calls were made is not given here.", "data": [{"smiles": "O=C(Nc1ccccc1)c1cc2ccccc2c(N=Nc2cc(Cl)ccc2Cl)c1O", "values": [{"measurement": "mutagenic call", "setting": "Test System: AMES SALMONELLA TYPHIMURIUM, Strain/Indicator: TA98, Metabolic Activation: HAMSTER, LIVER, S-9, AROCLOR 1254 (10%), Method: PREINCUBATION", "value": "inactive; negative"}, {"measurement": "mutagenic call", "setting": "Test System: AMES SALMONELLA TYPHIMURIUM, Strain/Indicator: TA98, Metabolic Activation: HAMSTER, LIVER, S-9, AROCLOR 1254 (30%), Method: PREINCUBATION", "value": "active; positive"}, {"measurement": "mutagenic call", "setting": "Test System: AMES SALMONELLA TYPHIMURIUM, Strain/Indicator: TA98, Metabolic Activation: NONE, Method: PREINCUBATION", "value": "inactive; negative"}, {"measurement": "mutagenic call", "setting": "Test System: AMES SALMONELLA TYPHIMURIUM, Strain/Indicator: TA98, Metabolic Activation: RAT, LIVER, S-9, AROCLOR 1254 (30%), Method: PREINCUBATION", "value": "inactive; negative"}, {"measurement": "mutagenic call", "setting": "Test System: AMES SALMONELLA TYPHIMURIUM, Strain/Indicator: TA100, Metabolic Activation: HAMSTER, LIVER, S-9, AROCLOR 1254 (30%), Method: PREINCUBATION", "value": "inactive; negative"}, {"measurement": "mutagenic call", "setting": "Test System: AMES SALMONELLA TYPHIMURIUM, Strain/Indicator: TA100, Metabolic Activation: NONE, Method: PREINCUBATION", "value": "inactive; negative"}, {"measurement": "mutagenic call", "setting": "Test System: AMES SALMONELLA TYPHIMURIUM, Strain/Indicator: TA100, Metabolic Activation: RAT, LIVER, S-9, AROCLOR 1254 (30%), Method: PREINCUBATION", "value": "inactive; negative"}, {"measurement": "mutagenic call", "setting": "Test System: AMES SALMONELLA TYPHIMURIUM, Strain/Indicator: TA1538, Metabolic Activation: HAMSTER, LIVER, S-9, AROCLOR 1254 (30%), Method: PREINCUBATION", "value": "active; positive"}]}, {"smiles": "Cn1c(N)nc2c3ccncc3ccc21", "values": [{"measurement": "mutagenic call", "setting": "[1]", "value": "active; positive"}]}, {"smiles": "Cn1c(N)nc2cc(C#N)ccc21", "values": [{"measurement": "mutagenic call", "setting": "Test System: AMES SALMONELLA TYPHIMURIUM, Strain/Indicator: TA98, Metabolic Activation: RAT, LIVER, S-9, AROCLOR 1254, Method: PREINCUBATION", "value": "active; positive"}, {"measurement": "mutagenic call", "setting": "Test System: AMES SALMONELLA TYPHIMURIUM, Strain/Indicator: TA100, Metabolic Activation: RAT, LIVER, S-9, AROCLOR 1254, Method: PREINCUBATION", "value": "inactive; negative"}]}, {"smiles": "Nc1ccc(S(=O)(=O)Nc2cnc3c(Cl)cccc3n2)cc1", "values": [{"measurement": "mutagenic call", "setting": "Test System: AMES SALMONELLA TYPHIMURIUM, Strain/Indicator: TA98, Metabolic Activation: HAMSTER, LIVER, S-9, AROCLOR 1254, Method: STANDARD PLATE", "value": "inactive; negative"}, {"measurement": "mutagenic call", "setting": "[2]", "value": "inactive; negative"}, {"measurement": "mutagenic call", "setting": "[1]", "value": "inactive; negative"}, {"measurement": "mutagenic call", "setting": "Test System: AMES SALMONELLA TYPHIMURIUM, Strain/Indicator: TA100, Metabolic Activation: HAMSTER, LIVER, S-9, AROCLOR 1254, Method: STANDARD PLATE", "value": "inactive; negative"}, {"measurement": "mutagenic call", "setting": "Test System: AMES SALMONELLA TYPHIMURIUM, Strain/Indicator: TA100, Metabolic Activation: NONE, Method: STANDARD PLATE", "value": "inactive; negative"}, {"measurement": "mutagenic call", "setting": "Test System: AMES SALMONELLA TYPHIMURIUM, Strain/Indicator: TA100, Metabolic Activation: RAT, LIVER, S-9, AROCLOR 1254, Method: STANDARD PLATE", "value": "inactive; negative"}, {"measurement": "mutagenic call", "setting": "Test System: AMES SALMONELLA TYPHIMURIUM, Strain/Indicator: TA1535, Metabolic Activation: HAMSTER, LIVER, S-9, AROCLOR 1254, Method: STANDARD PLATE", "value": "inactive; negative"}, {"measurement": "mutagenic call", "setting": "Test System: AMES SALMONELLA TYPHIMURIUM, Strain/Indicator: TA1535, Metabolic Activation: NONE, Method: STANDARD PLATE", "value": "inactive; negative"}, {"measurement": "mutagenic call", "setting": "Test System: AMES SALMONELLA TYPHIMURIUM, Strain/Indicator: TA1535, Metabolic Activation: RAT, LIVER, S-9, AROCLOR 1254, Method: STANDARD PLATE", "value": "inactive; negative"}, {"measurement": "mutagenic call", "setting": "Test System: AMES SALMONELLA TYPHIMURIUM, Strain/Indicator: TA1537, Metabolic Activation: HAMSTER, LIVER, S-9, AROCLOR 1254, Method: STANDARD PLATE", "value": "inactive; negative"}, {"measurement": "mutagenic call", "setting": "Test System: AMES SALMONELLA TYPHIMURIUM, Strain/Indicator: TA1537, Metabolic Activation: NONE, Method: STANDARD PLATE", "value": "inactive; negative"}, {"measurement": "mutagenic call", "setting": "Test System: AMES SALMONELLA TYPHIMURIUM, Strain/Indicator: TA1537, Metabolic Activation: RAT, LIVER, S-9, AROCLOR 1254, Method: STANDARD PLATE", "value": "inactive; negative"}, {"measurement": "mutagenic call", "setting": "Test System: AMES SALMONELLA TYPHIMURIUM, Strain/Indicator: TA1538, Metabolic Activation: HAMSTER, LIVER, S-9, AROCLOR 1254, Method: STANDARD PLATE", "value": "inactive; negative"}, {"measurement": "mutagenic call", "setting": "Test System: AMES SALMONELLA TYPHIMURIUM, Strain/Indicator: TA1538, Metabolic Activation: NONE, Method: STANDARD PLATE", "value": "inactive; negative"}, {"measurement": "mutagenic call", "setting": "Test System: AMES SALMONELLA TYPHIMURIUM, Strain/Indicator: TA1538, Metabolic Activation: RAT, LIVER, S-9, AROCLOR 1254, Method: STANDARD PLATE", "value": "inactive; negative"}, {"measurement": "mutagenic call", "setting": "Test System: MOUSE LYMPHOMA, Strain/Indicator: L5178Y (TK+/TK-), Metabolic Activation: NONE, Method: SUSPENSION/PLATE", "value": "inactive; negative. reevaluation of results: negative"}, {"measurement": "mutagenic call", "setting": "Test System: MOUSE LYMPHOMA, Strain/Indicator: L5178Y (TK+/TK-), Metabolic Activation: RAT, LIVER, S-9, AROCLOR 1254, Method: SUSPENSION/PLATE", "value": "inactive; negative. reevaluation of results: negative"}]}, {"smiles": "O=[N+]([O-])c1cc2c([nH]c3ccccc32)c([N+](=O)[O-])c1O", "values": [{"measurement": "mutagenic call", "setting": "Test System: AMES SALMONELLA TYPHIMURIUM, Strain/Indicator: TA98(NR), Metabolic Activation: NONE, Method: STANDARD PLATE", "value": "active; positive"}, {"measurement": "mutagenic call", "setting": "Test System: AMES SALMONELLA TYPHIMURIUM, Strain/Indicator: TA98(NR), Metabolic Activation: RAT, LIVER, S-9, AROCLOR 1254, Method: STANDARD PLATE", "value": "active; positive"}, {"measurement": "mutagenic call", "setting": "[2]", "value": "active; positive"}, {"measurement": "mutagenic call", "setting": "[1]", "value": "active; positive"}]}]}
